In patent US10894794B1, “Substituted [1,2,4]triazolo[4,3-a]pyrazines as antidiabetics” (King Abdulaziz University, priority 2019, dated 2021):
Marks after values point to notes of the source that are not given here.

Legend:
[1] = target: DPP-IV enzyme (Homo sapiens (Human), UniProt P27487); assay: DPP-IV inhibition assay (Biovision kit, fluorescence); format: biochemical; conditions: read-out: IC50 (DPP4 inhibition)
Description: Sitagliptin phosphate monohydrate and the different tested compounds were dissolved in dimethyl sulphoxide (DMSO) and diluted with tris buffer (pH 8.0, 50 mM) to achieve the required concentrations. DPP-IV inhibition assay was conducted using a kit purchased from Biovision (Milpitas, Calif., USA). Briefly, DPP-IV enzyme was diluted with tris buffer and pipetted 50 μl into glass mini-cells. Subsequently the 25 μl of tris buffer, sitagliptin phosphate monohydrate or the tested compounds was added and incubated at 37° C. for 20 min protected from light. Finally, a volume of 25 μl of DPP-IV substrate was added into each tube. The fluorescence generated from hydrolysis of the substrate was read at Ex/Em=360/460 nm using Modulus® single tube multimode reader (Promega, USA). Baseline fluorescence was recorded before incubation (R1) and 20 min after incubation (R2). Percentage inhibition was calculated according to the following equation: […] where, ΔRFU=R2−R1 and EC is the enzyme control (enzyme solution without inhibitor) which is considered 100% activity.
The standard DPP-IV inhibitor drug sitagliptin was employed as positive control. […] Sigmoidal dose-response curves for DPP-IV % inhibition versus log concentrations were plotted using Graphpad prism software, version 5.00 (GraphPad Software, Inc. La Jolla, Calif., USA). The IC50 value corresponds to the concentration of sample needed to inhibit DPP-IV by 50%.

[2] = system: 14 h overnight fasted diabetic mice; assay: Oral glucose tolerance test (OGTT) after single dose; format: in vivo; conditions: for glucose-lowering activity in OGTT compared with sitagliptin (in words): single dose 50 mg/kg; for Relative potency to sitagliptin (OGTT AUC) / AUC in OGTT, % change from diabetic control / AUC in OGTT, Δ from diabetic control / AUC in OGTT, X (arithmetic mean): single oral dose 50 mg/kg; for AUC in OGTT, % change from diabetic control / AUC in OGTT, Δ from diabetic control / AUC in OGTT, X (arithmetic mean): 2 h before glucose loading; for AUC in OGTT, X (arithmetic mean): AUC 0-120 min
Description: The oral glucose tolerance test was done in 14 h overnight fasted diabetic mice that were pretreated with a single oral dose of the tested compounds. Each of the tested agents was suspended in sodium carboxymethyl cellulose (CMC-Na) (1% in distilled water) and the dosing volume was adjusted to 10 ml/kg body weight per mouse. Then an oral glucose load was administered (2 g/kg) 2 h after drug treatment. Blood glucose levels were determined using the Accu-check Go® (Roche Diagnostics, Michigan, USA). Blood samples were collected just before drug administration (Fasting Blood glucose), then 2 h after drug treatment and before glucose loading. Blood samples collection was continued at 20, 40, 60 and 120 min intervals after glucose loading.
Animals were distributed between 17 groups (n=6) as follow: • a. Group 1: Animals were 14 h overnight-fasted normoglycemic mice and vehicle-treated (1% CMC-Na) at a dose of 10 ml/kg. • b. Group 2: Overnight fasted diabetic mice received the vehicle (1% CMC-Na) at a dosing volume of 10 ml/kg and served as a negative control. • c. Group 3: Overnight fasted diabetic mice received sitagliptin at a dose of 50 mg/kg in 1% CMC (in a volume of 10 ml/kg) and served as positive control. • a. Groups 4-17: Animals of these groups were overnight fasted diabetic mice received the tested compounds 128, 129, 130, 131, at a dose of 50 mg/kg in 1% CMC (volume of 10 ml/kg).

Chain of DPP-IV enzyme (P27487 whole entry, species assumed): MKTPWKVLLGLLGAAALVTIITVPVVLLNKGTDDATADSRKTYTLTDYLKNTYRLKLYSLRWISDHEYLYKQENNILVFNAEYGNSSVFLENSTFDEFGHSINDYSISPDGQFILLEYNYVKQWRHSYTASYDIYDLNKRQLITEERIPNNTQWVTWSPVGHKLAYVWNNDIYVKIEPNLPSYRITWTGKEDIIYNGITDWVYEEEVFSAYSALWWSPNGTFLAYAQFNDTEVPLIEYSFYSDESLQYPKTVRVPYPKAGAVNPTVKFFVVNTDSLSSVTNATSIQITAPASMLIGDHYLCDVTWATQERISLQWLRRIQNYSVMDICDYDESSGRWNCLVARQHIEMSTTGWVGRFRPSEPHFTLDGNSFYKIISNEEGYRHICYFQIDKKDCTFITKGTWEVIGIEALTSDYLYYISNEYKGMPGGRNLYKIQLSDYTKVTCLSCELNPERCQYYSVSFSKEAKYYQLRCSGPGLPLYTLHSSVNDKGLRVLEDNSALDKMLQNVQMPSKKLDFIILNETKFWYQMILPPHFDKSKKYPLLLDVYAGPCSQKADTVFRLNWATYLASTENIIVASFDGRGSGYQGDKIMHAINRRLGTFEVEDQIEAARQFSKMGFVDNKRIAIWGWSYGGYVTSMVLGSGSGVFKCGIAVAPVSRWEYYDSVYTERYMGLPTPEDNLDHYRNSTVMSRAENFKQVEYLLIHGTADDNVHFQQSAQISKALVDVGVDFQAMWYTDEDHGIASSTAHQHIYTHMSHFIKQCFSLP

C[C@H](NC(=O)c1cccc(Cl)c1)C(=O)N1CCn2c(nnc2C(F)(F)F)C1 [GLP-130]
IC50 [1]: 0.21 nM
glucose-lowering activity in OGTT compared with sitagliptin (in words) [2]: higher glucose-lowering activity than sitagliptin
Relative potency to sitagliptin (OGTT AUC) [2]: 1.32
AUC in OGTT, % change from diabetic control [2]: −32.01%
AUC in OGTT, Δ from diabetic control [2]: -16345 mg·min/dL
AUC in OGTT, X (arithmetic mean) [2]: 34720* mg · dL^−1 · min

N#Cc1cccc(NC(=O)CN2CCn3c(nnc3C(F)(F)F)C2)c1 [GLP-142]
IC50 [1]: 0.18 nM
glucose-lowering activity in OGTT compared with sitagliptin (in words) [2]: less potent than sitagliptin
Relative potency to sitagliptin (OGTT AUC) [2]: 0.76
AUC in OGTT, % change from diabetic control [2]: −18.51%
AUC in OGTT, Δ from diabetic control [2]: -9452 mg·min/dL
AUC in OGTT, X (arithmetic mean) [2]: 41613 mg·min/dL

O=C(CN1CCn2c(nnc2C(F)(F)F)C1)NC1CCCCC1 [GLP-140]
IC50 [1]: 1.84 nM
glucose-lowering activity in OGTT compared with sitagliptin (in words) [2]: less potent than sitagliptin
Relative potency to sitagliptin (OGTT AUC) [2]: 0.69
AUC in OGTT, % change from diabetic control [2]: −16.89%
AUC in OGTT, Δ from diabetic control [2]: -8626 mg·min/dL
AUC in OGTT, X (arithmetic mean) [2]: 42439 mg·min/dL
